Data on 7 compounds can be found in ChEMBL document CHEMBL1140239, “Novel phomactin analogues as PAF receptor ligands” (Bioorg Med Chem Lett, 2005).

pIC50: −log10 of the molar value.

This assay addresses Platelet-activating factor receptor (Homo sapiens, UniProt P25105). Nature of the assay: Inhibition of [3H]PAF binding to platelet activating factor receptor in human platelet.

Chain of Platelet-activating factor receptor (P25105 whole entry): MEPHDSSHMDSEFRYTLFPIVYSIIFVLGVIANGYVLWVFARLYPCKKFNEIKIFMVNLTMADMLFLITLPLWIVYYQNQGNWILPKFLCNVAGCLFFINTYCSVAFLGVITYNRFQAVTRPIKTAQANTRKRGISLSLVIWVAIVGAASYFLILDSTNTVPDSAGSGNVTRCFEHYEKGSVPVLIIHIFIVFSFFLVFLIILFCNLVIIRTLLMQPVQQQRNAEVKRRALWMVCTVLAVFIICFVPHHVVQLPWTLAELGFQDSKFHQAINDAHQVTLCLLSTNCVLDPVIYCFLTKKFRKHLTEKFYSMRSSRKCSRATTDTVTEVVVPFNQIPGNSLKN

`C/C1=C\CC[C@@]2(C)O[C@@H]2[C@@]2(O)OCC3=C2[C@@H](O)C[C@@H](C)[C@]3(C)CC1` showed a negative-log IC50 (pIC50) of 5.84. Compound `C/C1=C\CC[C@]2(C)O[C@@H]3C[C@@H](C)C(C)(CC1)C1=C3[C@](O)(OC1)[C@H]2O` (single isomer, unassigned) gave a pIC50 of 5.90. For `C/C1=C\CC[C@@]2(C)O[C@@H]2[C@@]2(O)OCC3=C2CC[C@@H](C)[C@]3(C)CC1`, the negative logarithm of the IC50 (pIC50) is 6.24. Against the preceding compound, the pIC50 is 0.34 log units higher. Compound `C/C1=C\CC[C@]2(C)O[C@H]2[C@@]2(O)OCC3=C2CC[C@@H](C)[C@]3(C)CC1` had a negative logarithm of the IC50 (pIC50) of 6.24. With `C/C1=C\CC[C@]2(C)O[C@@H]3C[C@@H](C)[C@](C)(CC1)[C@]14CO[C@](O)([C@H]2O)[C@]31O4`, the pIC50 was 5.63. Compared with the last compound, the pIC50 is 0.61 log units lower. The compound `C/C1=C\[C@@]2(O)OC[C@]34O[C@]23CC[C@@H](C)C4(C)CC/C(C)=C/CC1` (single isomer, unassigned) had a negative logarithm of the IC50 (pIC50) of 5.94.

Regarding `C/C1=C\CC[C@]2(C)O[C@H]2[C@@]2(O)OCC3=C2[C@H](O)C[C@@H](C)[C@]3(C)CC1`, the pIC50 was 5.95.

One may read the pIC50 as the negative decadic logarithm of the IC50, by convention in mol/L. Read a low pIC50 as a high IC50.
